The text below walks through data of patent publication US20070122470A1, “New Combination Dosage Form” (priority 2005, published 2007).

For data set [1] the following is noted: cited from earlier work.
Data set [2] is described as follows: randomized, double-blind, placebo-controlled trial of esomeprazole 20 mg once daily for 26 weeks in patients receiving ASA. In kind it is in vivo. As to the method: Patients were randomized to receive either esomeprazole 20 mg (administered as esomeprazole magnesium, i.e. Nexium® owned by AstraZeneca AB) or placebo once daily for 26 weeks. The primary outcome variable was the presence of gastric and/or duodenal ulcers at endoscopy over the 26-week period. A total of 991 patients, all receiving ASA in doses varying between 75-325 mg/day (57.1% male, mean age 69.3 years, mean acetyl salicylic acid (ASA) dose 124.0 mg/day) were included in the intent-to-treat population. The cumulative proportion of patients without either gastric or duodenal ulcer at 26 weeks was 98.2% with esomeprazole, compared with 93.8% with placebo (life table estimates, p=0.0007). The incidence of gastric ulcers was lower in patients taking esomeprazole than in those taking placebo (1.2% vs. 3.8%), as was the incidence of duodenal ulcers (0.4% and 1.6% for esomeprazole and placebo, respectively). Eight patients (1.6%) had developed an ulcer, in the esomeprazole group by 6 months, compared with 27 patients (5.4%) in the placebo group. This corresponded to a relative reduction of developing an ulcer of 70% when taking esomeprazole rather than placebo. A total of 95.6% of patients treated with esomeprazole had no esophageal lesions at week 26, compared with 81.7% of patients treated with placebo (p<0.0001).

The conditions of data set [3]: concomitant administration for patients treated with ASA (Müller et al 1997); cited from earlier work.
[4] abbreviates: esomeprazole 20 mg once daily, 26 weeks, patients on ASA.

As for `CC(=O)Oc1ccccc1C(=O)O` [ASA, acetyl salicylic acid], the “relative risk of developing an ulcer complication like bleeding from the stomach or the duodenum” value in data set [1] (daily dose as low as 75 mg (Weil et al BMJ 1995)) is listed as “doubles”. Also, in data set [1] (epidemiological data from the UK (Pirmohamed et al BMJ 2004)), the “hospital admissions due to adverse drug reactions caused by ASA” value is reported as 18%.
As to `COc1ccc2nc([S@@+]([O-])Cc3ncc(C)c(OC)c3C)[nH]c2c1` [esomeprazole], in data set [2] (all symptoms, versus placebo), the “resolution of investigator-assessed upper gastrointestinal symptoms” value is “higher with esomeprazole than with placebo”. Also, the safety and tolerability entry in data set [2] (esomeprazole 20 mg once daily for 26 weeks, patients on ASA) was “safe and well tolerated”. In addition, in data set [2] (setting [4]), the “incidence of duodenal ulcers” value is recorded as 0.4% and the “incidence of gastric ulcers” value was found to be 1.2%. The “cumulative proportion of patients without either gastric or duodenal ulcer at 26 weeks” value in data set [2] (esomeprazole 20 mg once daily, 26 weeks, patients ≧60 years on ASA 75-325 mg/day, life table estimates, p=0.0007 vs placebo) is listed as 98.2%. Moreover, in data set [2] (esomeprazole 20 mg once daily, patients on ASA, eight patients), the “patients who had developed an ulcer by 6 months” value turned out to be 1.6%. For the same molecule, in data set [2] (esomeprazole 20 mg once daily, patients on ASA, p<0.0001 vs placebo), the “patients with no esophageal lesions at week 26” value was found to be 95.6%. Also, the “relative reduction of developing an ulcer” value in data set [2] (esomeprazole rather than placebo, by 6 months) came out at 70%. In addition, the “proportion of patients without esophageal lesions at 6 months” value in data set [2] (patients with no lesions and those with Los Angeles grade A lesions at baseline, versus placebo) is recorded as “higher with esomeprazole than with placebo”.
`Cc1c(OCC(F)(F)F)ccnc1C[S+]([O-])c1nc2ccccc2[nH]1` (stereo not drawn) [lansoprazole]: the “effect on damages on the mucosa caused by ASA” value in data set [3] was “reduce damages on the mucosa caused by ASA”.
